Results as given in PubChem BioAssay (NCI).
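Where inhibition never reached the appropriate level, the endpoint shown equals the highest concentration tested. Otherwise, values were interpolated linearly from a five-concentration, 48-hour dose response in 96-well plates. GI50 is the concentration that inhibits growth by half. TGI: total growth inhibition.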

Legend:
Experiment in all cases: inhibition of tumour cell growth, NCI panel, 48 h
EKVX NSCLC = system: EKVX NSCLC
SNB-75 CNS = system: SNB-75 CNS
SK-MEL-28 melanoma = system: SK-MEL-28 melanoma
OVCAR-3 ovarian = system: OVCAR-3 ovarian
NCI/ADR-RES ovarian = system: NCI/ADR-RES ovarian
A549 NSCLC = system: A549 NSCLC
DU-145 prostate = system: DU-145 prostate
MDA-MB-231 breast = system: MDA-MB-231 breast
786-0 renal = system: 786-0 renal
CAKI-1 renal = system: CAKI-1 renal
U251 CNS = system: U251 CNS
RPMI-8226 leukemia = system: RPMI-8226 leukemia
HCC-2998 colon = system: HCC-2998 colon
IGROV1 ovarian = system: IGROV1 ovarian
MOLT-4 leukemia = system: MOLT-4 leukemia
SF-539 CNS = system: SF-539 CNS
KM12 colon = system: KM12 colon
HCT-15 colon = system: HCT-15 colon
HL-60(TB) leukemia = system: HL-60(TB) leukemia
SNB-19 CNS = system: SNB-19 CNS
OVCAR-4 ovarian = system: OVCAR-4 ovarian
LOX IMVI melanoma = system: LOX IMVI melanoma
K-562 leukemia = system: K-562 leukemia
OVCAR-5 ovarian = system: OVCAR-5 ovarian
UACC-62 melanoma = system: UACC-62 melanoma
HT29 colon = system: HT29 colon
HCT-116 colon = system: HCT-116 colon
HOP-62 NSCLC = system: HOP-62 NSCLC
NCI-H460 lung = system: NCI-H460 lung
HOP-92 NSCLC = system: HOP-92 NSCLC
T-47D breast = system: T-47D breast
SK-MEL-2 melanoma = system: SK-MEL-2 melanoma
MCF7 breast = system: MCF7 breast
PC-3 prostate = system: PC-3 prostate
ACHN renal = system: ACHN renal
NCI-H522 lung = system: NCI-H522 lung
SF-268 CNS = system: SF-268 CNS
SK-OV-3 ovarian = system: SK-OV-3 ovarian
HS 578T breast = system: HS 578T breast
CCRF-CEM leukemia = system: CCRF-CEM leukemia
SW-620 colon = system: SW-620 colon
MALME-3M melanoma = system: MALME-3M melanoma
SK-MEL-5 melanoma = system: SK-MEL-5 melanoma
A498 renal = system: A498 renal
SN12C renal = system: SN12C renal
COLO 205 colon = system: COLO 205 colon
RXF 393 renal = system: RXF 393 renal
TK-10 renal = system: TK-10 renal
SF-295 CNS = system: SF-295 CNS
UO-31 renal = system: UO-31 renal
MDA-MB-435 = system: MDA-MB-435
UACC-257 melanoma = system: UACC-257 melanoma
OVCAR-8 ovarian = system: OVCAR-8 ovarian
SR leukemia = system: SR leukemia
BT-549 breast = system: BT-549 breast
M14 melanoma = system: M14 melanoma

`CN1CCN(c2nc(-c3csc(-c4ccccc4)n3)cc3ccccc23)CC1` showed a GI50 (EKVX NSCLC) of 3.36 µM, a TGI (EKVX NSCLC) of 13 µM and a GI50 (SNB-75 CNS) of 5.97 µM. It also gave a TGI (SNB-75 CNS) of 20.8 µM, a GI50 (SK-MEL-28 melanoma) of 1.74 µM and a TGI (SK-MEL-28 melanoma) of 3.28 µM. The GI50 (OVCAR-3 ovarian) was 3.04 µM, the TGI (OVCAR-3 ovarian) was 11.8 µM and the GI50 (NCI/ADR-RES ovarian) was 1.93 µM. It also gave a TGI (NCI/ADR-RES ovarian) of 4.25 µM, a GI50 (A549 NSCLC) of 10.3 µM and a TGI (A549 NSCLC) of 22.7 µM. For the same compound, the GI50 (DU-145 prostate) was 2.7 µM, the TGI (DU-145 prostate) was 7.98 µM and the GI50 (MDA-MB-231 breast) was 1.94 µM. The TGI (MDA-MB-231 breast) was 4.38 µM, the GI50 (786-0 renal) was 1.68 µM and the TGI (786-0 renal) was 3.34 µM. The GI50 (CAKI-1 renal) was 1.61 µM, the TGI (CAKI-1 renal) was 3.52 µM and the GI50 (U251 CNS) was 2.34 µM. It also gave a TGI (U251 CNS) of 6.22 µM, a GI50 (RPMI-8226 leukemia) of 2.09 µM and a TGI (RPMI-8226 leukemia) of 5.37 µM. For the same compound, the GI50 (HCC-2998 colon) was 1.66 µM, the TGI (HCC-2998 colon) was 3.08 µM and the GI50 (IGROV1 ovarian) was 1.88 µM. For the same compound, the TGI (IGROV1 ovarian) was 4.55 µM, the GI50 (MOLT-4 leukemia) was 2.02 µM and the TGI (MOLT-4 leukemia) was 4.04 µM. The GI50 (SF-539 CNS) was 1.79 µM, the TGI (SF-539 CNS) was 3.45 µM and the GI50 (KM12 colon) was 1.95 µM. It also gave a TGI (KM12 colon) of 3.99 µM, a GI50 (HCT-15 colon) of 1.85 µM and a TGI (HCT-15 colon) of 3.66 µM. For the same compound, the GI50 (HL-60(TB) leukemia) was 1.84 µM, the TGI (HL-60(TB) leukemia) was 3.91 µM and the GI50 (SNB-19 CNS) was 5.52 µM. It also gave a TGI (SNB-19 CNS) of 21.3 µM, a GI50 (OVCAR-4 ovarian) of 4.1 µM and a TGI (OVCAR-4 ovarian) of 19.8 µM. The GI50 (LOX IMVI melanoma) was 1.66 µM, the TGI (LOX IMVI melanoma) was 3.09 µM and the GI50 (K-562 leukemia) was 1.84 µM. For the same compound, the TGI (K-562 leukemia) was 3.66 µM, the GI50 (OVCAR-5 ovarian) was 3.23 µM and the TGI (OVCAR-5 ovarian) was 12.8 µM. For the same compound, the GI50 (UACC-62 melanoma) was 1.93 µM, the TGI (UACC-62 melanoma) was 3.88 µM and the GI50 (HT29 colon) was 1.75 µM. The TGI (HT29 colon) was 3.28 µM, the GI50 (HCT-116 colon) was 1.61 µM and the TGI (HCT-116 colon) was 2.98 µM. The GI50 (HOP-62 NSCLC) was 2.58 µM, the TGI (HOP-62 NSCLC) was 10.6 µM and the GI50 (NCI-H460 lung) was 1.73 µM. For the same compound, the TGI (NCI-H460 lung) was 3.27 µM, the GI50 (HOP-92 NSCLC) was 1.88 µM and the TGI (HOP-92 NSCLC) was 7.63 µM. For the same compound, the GI50 (T-47D breast) was 2.07 µM, the TGI (T-47D breast) was 5.53 µM and the GI50 (SK-MEL-2 melanoma) was 14.1 µM. The TGI (SK-MEL-2 melanoma) was 29.2 µM, the GI50 (MCF7 breast) was 1.65 µM and the TGI (MCF7 breast) was 3.46 µM. For the same compound, the GI50 (PC-3 prostate) was 2.25 µM, the TGI (PC-3 prostate) was 6.25 µM and the GI50 (ACHN renal) was 2.1 µM. For the same compound, the TGI (ACHN renal) was 4.77 µM, the GI50 (NCI-H522 lung) was 1.93 µM and the TGI (NCI-H522 lung) was 4.44 µM. For the same compound, the GI50 (SF-268 CNS) was 4.67 µM, the TGI (SF-268 CNS) was 19.4 µM and the GI50 (SK-OV-3 ovarian) was 12.3 µM. The TGI (SK-OV-3 ovarian) was 28.2 µM, the GI50 (HS 578T breast) was 4.57 µM and the TGI (HS 578T breast) was 27.1 µM. For the same compound, the GI50 (CCRF-CEM leukemia) was 1.96 µM, the TGI (CCRF-CEM leukemia) was 4.34 µM and the GI50 (SW-620 colon) was 1.63 µM. It also gave a TGI (SW-620 colon) of 3.12 µM, a GI50 (MALME-3M melanoma) of 2 µM and a TGI (MALME-3M melanoma) of 4.23 µM. For the same compound, the GI50 (SK-MEL-5 melanoma) was 3.26 µM, the TGI (SK-MEL-5 melanoma) was 12.1 µM and the GI50 (A498 renal) was 14.8 µM. For the same compound, the TGI (A498 renal) was 28.9 µM, the GI50 (SN12C renal) was 3.45 µM and the TGI (SN12C renal) was 12.1 µM. For the same compound, the GI50 (COLO 205 colon) was 1.68 µM, the TGI (COLO 205 colon) was 3.19 µM and the GI50 (RXF 393 renal) was 1.96 µM. The TGI (RXF 393 renal) was 5.22 µM, the GI50 (TK-10 renal) was 14.6 µM and the TGI (TK-10 renal) was 28.9 µM. For the same compound, the GI50 (SF-295 CNS) was 4.97 µM, the TGI (SF-295 CNS) was 17.6 µM and the GI50 (UO-31 renal) was 2.19 µM. The TGI (UO-31 renal) was 8.18 µM, the GI50 (MDA-MB-435) was 1.78 µM and the TGI (MDA-MB-435) was 3.47 µM. For the same compound, the GI50 (UACC-257 melanoma) was 1.89 µM, the TGI (UACC-257 melanoma) was 4.19 µM and the GI50 (OVCAR-8 ovarian) was 1.79 µM. It also gave a TGI (OVCAR-8 ovarian) of 3.79 µM, a GI50 (SR leukemia) of 1.58 µM and a TGI (SR leukemia) of 3.97 µM. It also gave a GI50 (BT-549 breast) of 13 µM, a TGI (BT-549 breast) of 36.4 µM and a GI50 (M14 melanoma) of 1.8 µM. It also gave a TGI (M14 melanoma) of 3.55 µM.
